Measured values reported in ChEMBL document CHEMBL1150084, “Two Benzylated Dihydroflavonols from Cudrania tricuspidata” (1995).
In brackets after ≈: the same amount, converted by molar mass.

What was measured:
Type in all cases: functional
[1] = Cytotoxicity against human CRL1579 cells after 48 hrs by SRB assay; conditions: read-out: ED50 (the source's name)
LOX IMVI = assay: Cytotoxicity against human LOXIMVI cells after 48 hrs by SRB assay; conditions: read-out: ED50 (the source's name)
KM12 = assay: Cytotoxicity against human KM12 cells after 48 hrs by SRB assay; conditions: KM12, 48 h, read-out: ED50 (the source's name)
UO-31 = assay: Cytotoxicity against human UO31 cells after 48 hrs by SRB assay; conditions: UO-31, 48 h, read-out: ED50 (the source's name)
MOLT-4F = assay: Cytotoxicity against human MOLT4F cells after 48 hrs by SRB assay; conditions: read-out: ED50 (the source's name)

SMILES | EC50 [1] [µg/mL] | EC50 (LOX IMVI) [µg/mL] | EC50 (KM12) [µg/mL] | EC50 (UO-31) [µg/mL] | EC50 (MOLT-4F) [µg/mL]
O=C1c2c(O)c(Cc3ccc(O)cc3)c(O)c(Cc3ccc(O)cc3)c2O[C@H](c2ccc(O)cc2)[C@H]1O [GERICUDRANIN D] | 9.5 (≈ 19 µM) | 16.6 (≈ 33.2 µM) | 5 (≈ 9.99 µM) | 5.2 (≈ 10.4 µM) | 8.9 (≈ 17.8 µM)
O=C1c2c(cc(O)c(Cc3ccc(O)cc3)c2O)O[C@H](c2ccc(O)cc2)[C@H]1O [GERICUDRANIN E] | 2.9 (≈ 7.35 µM) | 12.5 (≈ 31.7 µM) | 11.9 (≈ 30.2 µM) | 7.6 (≈ 19.3 µM) | 10.7 (≈ 27.1 µM)
COc1cccc2c1C(=O)c1c(O)c3c(c(O)c1C2=O)C[C@@](O)(C(=O)CO)C[C@@H]3O[C@H]1C[C@H](N)[C@H](O)[C@H](C)O1 [DOXORUBICIN] | 0.16 (≈ 0.294 µM) | 0.13 (≈ 0.239 µM) | 0.11 (≈ 0.202 µM) | 0.3 (≈ 0.552 µM) | 0.02 (≈ 0.0368 µM)
